Measured values as given in ChEMBL document CHEMBL1135358, “Antifungal sordarins. Synthesis and structure-activity relationships of 3'-O-substituted derivatives” (2002).
In brackets after ≈: the same amount, converted by molar mass.

Legend:
Type in all cases: functional
Candida albicans [1] = test: In vitro Minimum inhibitory concentration (MIC) for antifungal activity against Candida albicans 2402
Kluyveromyces marxianus [2] = test: In vitro Minimum inhibitory concentration (MIC) for antifungal activity against Candida pseudotropicalis 2371
Candida albicans [3] = test: In vitro Minimum inhibitory concentration (MIC) for antifungal activity against Candida albicans 2005
Candida tropicalis [4] = test: In vitro Minimum inhibitory concentration (MIC) for antifungal activity against Candida tropicalis 2808
Cryptococcus neoformans [5] = test: In vitro Minimum inhibitory concentration (MIC) for antifungal activity against Cryptococcus neoformans 2867
Candida albicans [6] = test: In vitro Minimum inhibitory concentration (MIC) for antifungal activity against Candida albicans 1208
Cryptococcus neoformans [7] = test: In vitro Minimum inhibitory concentration (MIC) for antifungal activity against Cryptococcus neoformans 2867E
Candida albicans [8] = test: In vitro Minimum inhibitory concentration (MIC) for antifungal activity against Candida albicans 2402E
Candida albicans [9] = test: In vitro Minimum inhibitory concentration (MIC) for antifungal activity against Candida albicans 1208E
Candida tropicalis [10] = test: In vitro Minimum inhibitory concentration (MIC) for antifungal activity against Candida tropicalis 2808E
Candida albicans [11] = test: In vitro Minimum inhibitory concentration (MIC) for antifungal activity against Candida albicans 2005E
Kluyveromyces marxianus [12] = test: In vitro Minimum inhibitory concentration (MIC) for antifungal activity against Candida pseudotropicalis 2371E

SMILES	MIC (Candida albicans [1])	MIC (Kluyveromyces marxianus [2])	MIC (Candida albicans [3])	MIC (Candida tropicalis [4])	MIC (Cryptococcus neoformans [5])	MIC (Candida albicans [6])	MIC (Cryptococcus neoformans [7])	MIC (Candida albicans [8])	MIC (Candida albicans [9])	MIC (Candida tropicalis [10])	MIC (Candida albicans [11])	MIC (Kluyveromyces marxianus [12])
CO[C@@H]1[C@@H](C)O[C@@H](OCC23C[C@@H]4[C@H](C)CC[C@H]4C4(C=O)CC2C=C(C(C)C)C34C(=O)O)C(O)[C@@H]1OC(=O)OCc1ccccc1 (some centres undefined)	8 µg/mL (≈ 12.8 µM)	2 µg/mL (≈ 3.19 µM)	2 µg/mL (≈ 3.19 µM)	8 µg/mL (≈ 12.8 µM)	> 62 µg/mL	8 µg/mL (≈ 12.8 µM)	–	–	–	–	–	–
COC1C(O)C(O)[C@H](OCC23C[C@@H]4[C@H](C)CC[C@H]4C4(C=O)CC2C=C(C(C)C)C34C(=O)O)O[C@@H]1C (single isomer, unassigned)	31 µg/mL (≈ 62.9 µM)	16 µg/mL (≈ 32.5 µM)	8 µg/mL (≈ 16.2 µM)	16 µg/mL (≈ 32.5 µM)	> 125 µg/mL	31 µg/mL (≈ 62.9 µM)	–	–	–	–	–	–
CO[C@H]1C(OC(=O)c2ccccc2)C(O)[C@H](OCC23C[C@@H]4[C@H](C)CC[C@H]4C4(C=O)CC2C=C(C(C)C)C34C(=O)O)O[C@@H]1C (single isomer, unassigned)	1 µg/mL (≈ 1.68 µM)	0.25 µg/mL (≈ 0.419 µM)	0.12 µg/mL (≈ 0.201 µM)	0.5 µg/mL (≈ 0.838 µM)	> 125 µg/mL	1 µg/mL (≈ 1.68 µM)	–	–	–	–	–	–
COCC(=O)OC1C(O)[C@H](OCC23C[C@@H]4[C@H](C)CC[C@H]4C4(C=O)CC2C=C(C(C)C)C34C(=O)O)O[C@H](C)[C@H]1OC (single isomer, unassigned)	125 µg/mL (≈ 221 µM)	16 µg/mL (≈ 28.3 µM)	62 µg/mL (≈ 110 µM)	> 125 µg/mL	125 µg/mL (≈ 221 µM)	> 125 µg/mL	–	–	–	–	–	–
CO[C@H]1[C@@H](OC(=O)OCc2ccccc2)[C@H](OC(=O)OCc2ccccc2)[C@H](OCC23C[C@@H]4[C@H](C)CC[C@H]4C4(C=O)CC2C=C(C(C)C)C34C(=O)O)O[C@@H]1C (some centres undefined)	–	–	–	–	–	–	> 62 µg/mL	> 62 µg/mL	> 62 µg/mL	> 62 µg/mL	62 µg/mL (≈ 81.5 µM)	> 62 µg/mL
C/C=C/C=C(\C)C(=O)O[C@H]1C(O)[C@H](OCC23C[C@@H]4[C@H](C)CC[C@H]4C4(C=O)CC2C=C(C(C)C)C34C(=O)O)O[C@H](C)[C@H]1OC (some centres undefined)	0.03 µg/mL (≈ 0.0499 µM)	0.03 µg/mL (≈ 0.0499 µM)	0.015 µg/mL (≈ 0.025 µM)	0.06 µg/mL (≈ 0.0999 µM)	0.25 µg/mL (≈ 0.416 µM)	0.25 µg/mL (≈ 0.416 µM)	–	–	–	–	–	–
CO[C@H]1C(OC(=O)c2ccco2)C(O)[C@H](OCC23C[C@@H]4[C@H](C)CC[C@H]4C4(C=O)CC2C=C(C(C)C)C34C(=O)O)O[C@@H]1C (single isomer, unassigned)	16 µg/mL (≈ 27.3 µM)	4 µg/mL (≈ 6.82 µM)	2 µg/mL (≈ 3.41 µM)	8 µg/mL (≈ 13.6 µM)	> 125 µg/mL	16 µg/mL (≈ 27.3 µM)	–	–	–	–	–	–
CCCCCC(=O)O[C@H]1[C@H](OC(=O)CCCCC)[C@H](OCC23C[C@@H]4[C@H](C)CC[C@H]4C4(C=O)CC2C=C(C(C)C)C34C(=O)O)O[C@H](C)[C@H]1OC (some centres undefined)	–	–	–	–	–	–	> 125 µg/mL	8 µg/mL (≈ 11.6 µM)	8 µg/mL (≈ 11.6 µM)	> 125 µg/mL	4 µg/mL (≈ 5.81 µM)	> 125 µg/mL
CCC/C=C(\C)C(=O)O[C@H]1C(O)[C@H](OCC23C[C@@H]4[C@H](C)CC[C@H]4C4(C=O)CC2C=C(C(C)C)C34C(=O)O)O[C@H](C)[C@H]1OC (some centres undefined)	0.5 µg/mL (≈ 0.83 µM)	0.12 µg/mL (≈ 0.199 µM)	0.015 µg/mL (≈ 0.0249 µM)	0.5 µg/mL (≈ 0.83 µM)	62 µg/mL (≈ 103 µM)	1 µg/mL (≈ 1.66 µM)	–	–	–	–	–	–
CO[C@H]1C(OC(=O)CCCCCl)C(O)[C@H](OCC23C[C@@H]4[C@H](C)CC[C@H]4C4(C=O)CC2C=C(C(C)C)C34C(=O)O)O[C@@H]1C (single isomer, unassigned)	2 µg/mL (≈ 3.27 µM)	0.25 µg/mL (≈ 0.409 µM)	0.12 µg/mL (≈ 0.196 µM)	1 µg/mL (≈ 1.64 µM)	16 µg/mL (≈ 26.2 µM)	2 µg/mL (≈ 3.27 µM)	–	–	–	–	–	–

Next, values leading:

MIC (Candida albicans [1])	MIC (Kluyveromyces marxianus [2])	MIC (Candida albicans [3])	MIC (Candida tropicalis [4])	MIC (Cryptococcus neoformans [5])	MIC (Candida albicans [6])	MIC (Cryptococcus neoformans [7])	MIC (Candida albicans [8])	MIC (Candida albicans [9])	MIC (Candida tropicalis [10])	MIC (Candida albicans [11])	MIC (Kluyveromyces marxianus [12])	SMILES
0.03 µg/mL (≈ 0.0485 µM)	0.004 µg/mL (≈ 0.00646 µM)	< 0.001 µg/mL	0.06 µg/mL (≈ 0.097 µM)	0.25 µg/mL (≈ 0.404 µM)	0.06 µg/mL (≈ 0.097 µM)	–	–	–	–	–	–	CCCCCCCC(=O)OC1C(O)[C@H](OCC23C[C@@H]4[C@H](C)CC[C@H]4C4(C=O)CC2C=C(C(C)C)C34C(=O)O)O[C@H](C)[C@H]1OC (single isomer, unassigned)
0.25 µg/mL (≈ 0.423 µM)	0.01 µg/mL (≈ 0.0169 µM)	0.015 µg/mL (≈ 0.0254 µM)	0.03 µg/mL (≈ 0.0508 µM)	16 µg/mL (≈ 27.1 µM)	0.25 µg/mL (≈ 0.423 µM)	–	–	–	–	–	–	CCCCCC(=O)OC1C(O)[C@H](OCC23C[C@@H]4[C@H](C)CC[C@H]4C4(C=O)CC2C=C(C(C)C)C34C(=O)O)O[C@H](C)[C@H]1OC (single isomer, unassigned)
0.06 µg/mL (≈ 0.0992 µM)	0.06 µg/mL (≈ 0.0992 µM)	0.008 µg/mL (≈ 0.0132 µM)	0.25 µg/mL (≈ 0.413 µM)	8 µg/mL (≈ 13.2 µM)	0.12 µg/mL (≈ 0.198 µM)	–	–	–	–	–	–	CCCCC(C)C(=O)OC1C(O)[C@H](OCC23C[C@@H]4[C@H](C)CC[C@H]4C4(C=O)CC2C=C(C(C)C)C34C(=O)O)O[C@H](C)[C@H]1OC (single isomer, unassigned)
–	–	–	–	–	–	31 µg/mL (≈ 52.5 µM)	31 µg/mL (≈ 52.5 µM)	31 µg/mL (≈ 52.5 µM)	62 µg/mL (≈ 105 µM)	8 µg/mL (≈ 13.5 µM)	31 µg/mL (≈ 52.5 µM)	CCCCCC(=O)O[C@@H]1[C@H](OCC23C[C@@H]4[C@H](C)CC[C@H]4C4(C=O)CC2C=C(C(C)C)C34C(=O)O)O[C@H](C)C(OC)[C@H]1O (single isomer, unassigned)
–	–	–	–	–	–	31 µg/mL (≈ 53.7 µM)	2 µg/mL (≈ 3.47 µM)	4 µg/mL (≈ 6.94 µM)	1 µg/mL (≈ 1.73 µM)	0.25 µg/mL (≈ 0.433 µM)	0.25 µg/mL (≈ 0.433 µM)	CCCCCCOC1[C@H](O)[C@H](OCC23C[C@@H]4[C@H](C)CC[C@H]4C4(C=O)CC2C=C(C(C)C)C34C(=O)O)O[C@H](C)[C@H]1OC (single isomer, unassigned)
1 µg/mL (≈ 1.55 µM)	0.25 µg/mL (≈ 0.386 µM)	0.25 µg/mL (≈ 0.386 µM)	8 µg/mL (≈ 12.4 µM)	1 µg/mL (≈ 1.55 µM)	1 µg/mL (≈ 1.55 µM)	–	–	–	–	–	–	CCCCCCCCCC(=O)OC1C(O)[C@H](OCC23C[C@@H]4[C@H](C)CC[C@H]4C4(C=O)CC2C=C(C(C)C)C34C(=O)O)O[C@H](C)[C@H]1OC (single isomer, unassigned)
2 µg/mL (≈ 3.09 µM)	1 µg/mL (≈ 1.54 µM)	0.06 µg/mL (≈ 0.0926 µM)	2 µg/mL (≈ 3.09 µM)	31 µg/mL (≈ 47.9 µM)	4 µg/mL (≈ 6.17 µM)	–	–	–	–	–	–	CCCCCCCCNC(=O)O[C@H]1C(O)[C@H](OCC23C[C@@H]4[C@H](C)CC[C@H]4C4(C=O)CC2C=C(C(C)C)C34C(=O)O)O[C@H](C)[C@H]1OC (some centres undefined)
0.5 µg/mL (≈ 0.771 µM)	0.12 µg/mL (≈ 0.185 µM)	0.25 µg/mL (≈ 0.385 µM)	8 µg/mL (≈ 12.3 µM)	8 µg/mL (≈ 12.3 µM)	1 µg/mL (≈ 1.54 µM)	–	–	–	–	–	–	CCCCCCCCOC(=O)O[C@H]1C(O)[C@H](OCC23C[C@@H]4[C@H](C)CC[C@H]4C4(C=O)CC2C=C(C(C)C)C34C(=O)O)O[C@H](C)[C@H]1OC (some centres undefined)
2 µg/mL (≈ 3.55 µM)	0.5 µg/mL (≈ 0.889 µM)	0.25 µg/mL (≈ 0.444 µM)	2 µg/mL (≈ 3.55 µM)	> 125 µg/mL	1 µg/mL (≈ 1.78 µM)	–	–	–	–	–	–	CCCC(=O)OC1C(O)[C@H](OCC23C[C@@H]4[C@H](C)CC[C@H]4C4(C=O)CC2C=C(C(C)C)C34C(=O)O)O[C@H](C)[C@H]1OC (single isomer, unassigned)
